Values joined by “and” are separate entries in the source; they are usually repeats but may differ in a detail not shown here. Equal entries are not always repeated. Toxic doses and inconclusive results are not listed.
Tested on: P388 leukemia ip, CD2F1 mice, survival T/C
Assay: NCI In Vivo Anticancer Drug Screen. Data for tumor model P388 Leukemia (intraperitoneal) in CD2F1 (CDF1) mice
Details: endpoint: median survival time, higher = longer survival
Outline: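 Mice carrying the transplanted tumor received test compound or vehicle. Survival was recorded in each group, and the value is the treated-group measurement divided by that of the vehicle-treated control group.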

**Q.** What does the source list for `O=C1c2c(O)ccc(O)c2C(=O)c2c(NCCNCCO)ccc(NCCNCCO)c21`?
**A.** T/C (dose: 0.02 mg/kg/injection, schedule: Q04DX003 (ip), vehicle: saline): 120 % of control; T/C (dose: 0.06 mg/kg/injection, schedule: Q01DX009 (ip), vehicle: saline): 175 % of control and 208 % of control; T/C (dose: 0.06 mg/kg/injection, schedule: Q04DX003 (ip), vehicle: saline): 218 % of control; T/C (dose: 0.12 mg/kg/injection, schedule: Q01DX009 (ip), vehicle: acid diluted with saline): 179 % of control and 190 % of control; T/C (dose: 0.12 mg/kg/injection, schedule: Q01DX009 (ip), vehicle: other): 165 % of control; T/C (dose: 0.12 mg/kg/injection, schedule: Q01DX009 (ip), vehicle: saline): 200 % of control and 220 % of control; T/C (dose: 0.12 mg/kg/injection, schedule: Q04DX003 (ip), vehicle: saline): 160 % of control; T/C (dose: 0.13 mg/kg/injection, schedule: Q01DX009 (ip), vehicle: acid diluted with saline): 150 % of control and 176 % of control; T/C (dose: 0.2 mg/kg/injection, schedule: Q01DX009 (ip), vehicle: acid diluted with saline): 250 % of control; T/C (dose: 0.2 mg/kg/injection, schedule: Q01DX009 (ip), vehicle: water): 172 % of control; T/C (dose: 0.25 mg/kg/injection, schedule: Q01DX005 (ip), vehicle: acid diluted with saline): 270 % of control; T/C (dose: 0.25 mg/kg/injection, schedule: Q04DX003 (ip), vehicle: saline): 182 % of control; T/C (dose: 0.32 mg/kg/injection, schedule: Q01DX009 (ip), vehicle: acid diluted with saline): 225 % of control; T/C (dose: 0.32 mg/kg/injection, schedule: Q01DX009 (sc), vehicle: acid diluted with saline): 122 % of control; T/C (dose: 0.39 mg/kg/injection, schedule: Q01DX009 (ip), vehicle: acid diluted with saline): 272 % of control; T/C (dose: 0.39 mg/kg/injection, schedule: Q01DX009 (ip), vehicle: water): 245 % of control; T/C (dose: 0.5 mg/kg/injection, schedule: Q01DX005 (ip), vehicle: acid diluted with saline): 270 % of control; T/C (dose: 0.5 mg/kg/injection, schedule: Q01DX005 (iv), vehicle: acid diluted with saline): 99 % of control; T/C (dose: 0.5 mg/kg/injection, schedule: Q01DX009 (ip), vehicle: other): 238 % of control and 333 % of control; T/C (dose: 0.5 mg/kg/injection, schedule: Q04DX003 (ip), vehicle: saline): 179 % of control; T/C (dose: 0.54 mg/kg/injection, schedule: Q01DX009 (ip), vehicle: acid diluted with saline): 234 % of control; T/C (dose: 0.54 mg/kg/injection, schedule: Q01DX009 (sc), vehicle: acid diluted with saline): 153 % of control; T/C (dose: 0.75 mg/kg/injection, schedule: Q04DX002 (ip), vehicle: acid diluted with saline): 209 % of control; T/C (dose: 0.75 mg/kg/injection, schedule: Q04DX003 (ip), vehicle: acid diluted with saline): 123 % of control; T/C (dose: 0.78 mg/kg/injection, schedule: Q01DX009 (ip), vehicle: water): 271 % of control; T/C (dose: 0.78 mg/kg/injection, schedule: Q04DX003 (ip), vehicle: acid diluted with saline): 409 % of control; T/C (dose: 0.9 mg/kg/injection, schedule: Q01DX009 (ip), vehicle: acid diluted with saline): 405 % of control; T/C (dose: 0.9 mg/kg/injection, schedule: Q01DX009 (sc), vehicle: acid diluted with saline): 216 % of control; T/C (dose: 1.0 mg/kg/injection, schedule: Q01DX005 (ip), vehicle: acid diluted with saline): 270 % of control; T/C (dose: 1.0 mg/kg/injection, schedule: Q04DX003 (ip), vehicle: saline): 151 % of control and 188 % of control and 208 % of control; T/C (dose: 1.04 mg/kg/injection, schedule: Q04DX003 (ip), vehicle: acid diluted with saline): 252 % of control; T/C (dose: 1.04 mg/kg/injection, schedule: Q04DX003 (iv), vehicle: acid diluted with saline): 162 % of control; T/C (dose: 1.08 mg/kg/injection, schedule: Q01DX009 (ip), vehicle: acid diluted with saline): 409 % of control; T/C (dose: 1.3 mg/kg/injection, schedule: Q04DX003 (ip), vehicle: acid diluted with saline): 302 % of control; T/C (dose: 1.5 mg/kg/injection, schedule: Q01DX009 (ip), vehicle: acid diluted with saline): 405 % of control; T/C (dose: 1.5 mg/kg/injection, schedule: Q01DX009 (sc), vehicle: acid diluted with saline): 272 % of control; T/C (dose: 1.5 mg/kg/injection, schedule: Q04DX002 (ip), vehicle: acid diluted with saline): 176 % of control and 201 % of control; T/C (dose: 1.56 mg/kg/injection, schedule: Q01DX009 (ip), vehicle: water): 218 % of control; T/C (dose: 1.73 mg/kg/injection, schedule: Q04DX003 (ip), vehicle: acid diluted with saline): 333 % of control; T/C (dose: 1.73 mg/kg/injection, schedule: Q04DX003 (iv), vehicle: acid diluted with saline): 227 % of control; T/C (dose: 1.8 mg/kg/injection, schedule: Q01DX009 (ip), vehicle: acid diluted with saline): 225 % of control; T/C (dose: 2.0 mg/kg/injection, schedule: Q01DX009 (ip), vehicle: other): 207 % of control; T/C (dose: 2.0 mg/kg/injection, schedule: Q04DX003 (ip), vehicle: saline): 164 % of control and 172 % of control and 207 % of control; T/C (dose: 2.5 mg/kg/injection, schedule: Q01DX009 (ip), vehicle: acid diluted with saline): 180 % of control; T/C (dose: 2.88 mg/kg/injection, schedule: Q04DX003 (ip), vehicle: acid diluted with saline): 333 % of control; T/C (dose: 3.0 mg/kg/injection, schedule: Q01DX001 (ip), vehicle: acid diluted with saline): 333 % of control; T/C (dose: 3.0 mg/kg/injection, schedule: Q01DX009 (ip), vehicle: acid diluted with saline): 102 % of control; T/C (dose: 3.0 mg/kg/injection, schedule: Q04DX002 (ip), vehicle: acid diluted with saline): 260 % of control and 288 % of control; T/C (dose: 3.24 mg/kg/injection, schedule: Q01DX001 (iv), vehicle: acid diluted with saline): 178 % of control; T/C (dose: 3.3 mg/kg/injection, schedule: Q01DX001 (ip), vehicle: acid diluted with saline): 247 % of control; T/C (dose: 4.0 mg/kg/injection, schedule: Q01DX001 (ip), vehicle: acid diluted with saline): 187 % of control; T/C (dose: 4.0 mg/kg/injection, schedule: Q01DX001 (iv), vehicle: acid diluted with saline): 117 % of control; T/C (dose: 4.0 mg/kg/injection, schedule: Q01DX009 (ip), vehicle: other): 99 % of control; T/C (dose: 4.0 mg/kg/injection, schedule: Q04DX003 (ip), vehicle: saline): 166 % of control and 223 % of control and 233 % of control; T/C (dose: 4.4 mg/kg/injection, schedule: Q01DX001 (ip), vehicle: acid diluted with saline): 229 % of control; T/C (dose: 4.8 mg/kg/injection, schedule: Q04DX003 (ip), vehicle: acid diluted with saline): 180 % of control; T/C (dose: 5.0 mg/kg/injection, schedule: Q01DX001 (ip), vehicle: other): 250 % of control; T/C (dose: 5.4 mg/kg/injection, schedule: Q01DX001 (ip), vehicle: acid diluted with saline): 405 % of control; T/C (dose: 5.4 mg/kg/injection, schedule: Q01DX001 (iv), vehicle: acid diluted with saline): 270 % of control; T/C (dose: 6.0 mg/kg/injection, schedule: Q04DX002 (ip), vehicle: acid diluted with saline): 192 % of control and 260 % of control; T/C (dose: 6.7 mg/kg/injection, schedule: Q01DX001 (ip), vehicle: acid diluted with saline): 293 % of control; T/C (dose: 8.0 mg/kg/injection, schedule: Q01DX001 (ip), vehicle: acid diluted with saline): 171 % of control; T/C (dose: 8.0 mg/kg/injection, schedule: Q01DX001 (iv), vehicle: acid diluted with saline): 198 % of control; T/C (dose: 8.0 mg/kg/injection, schedule: Q04DX003 (ip), vehicle: acid diluted with saline): 107 % of control; T/C (dose: 8.0 mg/kg/injection, schedule: Q04DX003 (ip), vehicle: saline): 164 % of control and 232 % of control; T/C (dose: 8.0 mg/kg/injection, schedule: Q04DX003 (iv), vehicle: acid diluted with saline): 99 % of control; T/C (dose: 9.0 mg/kg/injection, schedule: Q01DX001 (ip), vehicle: acid diluted with saline): 261 % of control; T/C (dose: 9.0 mg/kg/injection, schedule: Q01DX001 (iv), vehicle: acid diluted with saline): 405 % of control; T/C (dose: 10.0 mg/kg/injection, schedule: Q04DX003 (ip), vehicle: acid diluted with saline): 180 % of control; T/C (dose: 12.0 mg/kg/injection, schedule: Q04DX002 (ip), vehicle: acid diluted with saline): 118 % of control; T/C (dose: 15.0 mg/kg/injection, schedule: Q01DX001 (ip), vehicle: other): 302 % of control; T/C (dose: 15.0 mg/kg/injection, schedule: Q01DX001 (iv), vehicle: acid diluted with saline): 405 % of control; T/C (dose: 16.0 mg/kg/injection, schedule: Q01DX001 (ip), vehicle: acid diluted with saline): 173 % of control; T/C (dose: 16.0 mg/kg/injection, schedule: Q01DX001 (iv), vehicle: acid diluted with saline): 101 % of control; T/C (dose: 16.0 mg/kg/injection, schedule: Q04DX003 (ip), vehicle: saline): 101 % of control and 117 % of control; T/C (dose: 25.0 mg/kg/injection, schedule: Q01DX001 (ip), vehicle: acid diluted with saline): 225 % of control; T/C (dose: 32.0 mg/kg/injection, schedule: Q01DX001 (ip), vehicle: acid diluted with saline): 270 % of control; T/C (dose: 32.0 mg/kg/injection, schedule: Q04DX003 (ip), vehicle: saline): 100 % of control; T/C (dose: 64.0 mg/kg/injection, schedule: Q01DX001 (ip), vehicle: acid diluted with saline): 270 % of control; T/C (dose: 7.0 micrograms/kg/injection, schedule: Q04DX003 (ip), vehicle: saline): 107 % of control; T/C (dose: 15.0 micrograms/kg/injection, schedule: Q04DX003 (ip), vehicle: saline): 107 % of control; T/C (dose: 31.0 micrograms/kg/injection, schedule: Q04DX003 (ip), vehicle: saline): 120 % of control

Source: PubChem BioAssay AID330 (DTP/NCI, 2004)
